Assay results as given in PMC5428521, “Identification of a Novel, Small Molecule Partial Agonist for the Cyclic AMP Sensor, EPAC1” (Scientific Reports, 2017).
Several values for one entry are separate records, joined by “and”; a condition that tells them apart may be missing. Equal entries are not always repeated.

How the values were obtained:
[1] = molecular target: T1, EPAC1 (amino acids 149–881) (Homo sapiens, UniProt O95398); assay: In vitro GEF activity assay (MANT-GDP dissociation from Rap1), EPAC1; assay type: biochemical; details: for AC50: AC50, GEF Activation (no cAMP), from kobs vs concentration
T1 construct: recombinant EPAC1 (amino acids 149–881); made in house; host or cells: bacteria
T1 sequence (O95398 149-881 isoform O95398-3): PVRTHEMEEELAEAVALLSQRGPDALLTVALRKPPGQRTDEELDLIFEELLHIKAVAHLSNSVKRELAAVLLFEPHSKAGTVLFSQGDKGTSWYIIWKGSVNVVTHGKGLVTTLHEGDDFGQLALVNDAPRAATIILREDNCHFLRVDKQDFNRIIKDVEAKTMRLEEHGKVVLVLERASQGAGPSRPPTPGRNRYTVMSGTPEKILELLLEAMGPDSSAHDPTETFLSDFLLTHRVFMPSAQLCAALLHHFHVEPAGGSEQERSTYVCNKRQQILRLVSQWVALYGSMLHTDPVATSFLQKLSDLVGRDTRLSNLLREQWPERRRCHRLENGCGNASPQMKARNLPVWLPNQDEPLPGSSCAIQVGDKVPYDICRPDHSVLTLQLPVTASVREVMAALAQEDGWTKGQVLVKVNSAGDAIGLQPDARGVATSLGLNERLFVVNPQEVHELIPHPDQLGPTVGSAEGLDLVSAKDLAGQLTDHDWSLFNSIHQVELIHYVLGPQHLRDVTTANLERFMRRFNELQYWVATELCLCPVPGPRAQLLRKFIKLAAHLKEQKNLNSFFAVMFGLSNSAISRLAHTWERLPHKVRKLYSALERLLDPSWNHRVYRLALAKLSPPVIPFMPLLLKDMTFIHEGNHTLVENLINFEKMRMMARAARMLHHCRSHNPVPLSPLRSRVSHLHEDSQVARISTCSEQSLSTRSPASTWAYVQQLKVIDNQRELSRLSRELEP
Procedure: For this, we used the well-characterised EPAC GEF activity assay. The assay is based on the EPAC-stimulated dissociation of fluorescent MANT-GDP from recombinant Rap1 in the presence of excess non-fluorescent nucleotide.
The data are fitted as single exponential decay with off-set (red lines) to obtain the rate constants kobs, as shown in (b).
(§1) EPAC1 and EPAC2 in vitro GEF activities were calculated as previously described. Briefly, recombinant EPAC1 (amino acids 149–881) or EPAC2 (amino acids 280–993) were incubated at 100 nM with recombinant Rap1 (200 nM) preloaded with the fluorescent GDP analogue 2′/3′-O-(N-Methylanthraniloyl)guanosine 5-diphosphate (MANT-GDP) in the presence of 20 μM GDP and then the fluorescence intensity was measured at 360/450 nm (ex/em) over time. […] AC50 or IC50 values were determined from the plots of kobs against the concentration of the agonist and antagonist, respectively Table 1.

[2] = molecular target: T2, EPAC2 (amino acids 280–993) (Mus musculus, UniProt Q9EQZ6); assay: In vitro GEF activity assay (MANT-GDP dissociation from Rap1), EPAC2; assay type: biochemical; details: for IC50: IC50, GEF Inhibition (with cAMP), 50 μM cAMP; for GEF Activation (no cAMP), AC50 / induced EPAC2 activity: absence of cAMP, N/A = inability to promote GEF activity of EPAC2
T2 construct: EPAC2 (amino acids 280–993); made in house; host or cells: bacteria
T2 sequence (Q9EQZ6 280-993 isoform Q9EQZ6-3): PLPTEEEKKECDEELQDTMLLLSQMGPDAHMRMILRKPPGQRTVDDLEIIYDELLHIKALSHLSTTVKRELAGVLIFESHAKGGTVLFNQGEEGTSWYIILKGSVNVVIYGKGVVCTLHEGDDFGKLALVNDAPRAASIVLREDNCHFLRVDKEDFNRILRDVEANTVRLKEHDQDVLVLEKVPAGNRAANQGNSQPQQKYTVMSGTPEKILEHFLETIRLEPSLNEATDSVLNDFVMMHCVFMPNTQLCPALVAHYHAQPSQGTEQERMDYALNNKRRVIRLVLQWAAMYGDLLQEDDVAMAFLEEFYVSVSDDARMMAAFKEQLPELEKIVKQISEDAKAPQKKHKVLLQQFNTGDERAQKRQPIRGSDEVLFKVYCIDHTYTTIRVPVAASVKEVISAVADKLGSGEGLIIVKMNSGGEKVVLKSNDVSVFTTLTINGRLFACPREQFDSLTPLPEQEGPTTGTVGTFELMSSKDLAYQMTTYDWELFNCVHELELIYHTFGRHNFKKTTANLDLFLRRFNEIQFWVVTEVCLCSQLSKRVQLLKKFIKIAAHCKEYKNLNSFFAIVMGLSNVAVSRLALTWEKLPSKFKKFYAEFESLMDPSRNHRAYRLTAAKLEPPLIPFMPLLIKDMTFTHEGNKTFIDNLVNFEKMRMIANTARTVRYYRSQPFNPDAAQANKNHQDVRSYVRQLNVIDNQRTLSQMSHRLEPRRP
Procedure: as §1

Row | Compound | IC50 [1] [µM] | AC50 ([1]; absence of cAMP) | maximal induced activity, fold lower than that of cAMP ([1]; absence of cAMP) | IC50 [2] | GEF Activation (no cAMP), AC50 / induced EPAC2 activity [2] | Kd ([2]; read-out: affinity for EPAC2 280–993, approximated) [µM]
1 | Cc1ccc(S(=O)(=O)NC(=O)COc2ccc3ccccc3c2)c(C)c1 [I942, N-(2,4-dimethylbenzenesulfonyl)-2-(naphthalen-2-yloxy)acetamide] | ~300 | 50 µM and ~50 µM | around 10 fold | 110 µM and ~110 µM | very weak | ~5
2 | O=C(COc1ccc2ccccc2c1)NS(=O)(=O)c1ccccc1 [I178, N-(benzenesulfonyl)-2-(naphthalen-2-yloxy)acetamide] | ~500 | 200 µM and ~200 µM |  | 250 µM and ~250 µM | very weak | 
